Laboratory results published in patent US8138227B2, “Method for inhibiting or reversing non-enzymatic glycation” (Trustees of Dartmouth College, priority 2006, dated 2012).

Test: Transglycation of glucose-ethylamine with thiolamines followed by 13C NMR
Details: 50 mM thiolamine, 20 mM G-E; for potency as transglycating agent (kinetics of decomposition of G-E and formation of thiazolidines): pH 7.25, room temperature; for conversion of G-E to thiazolidine (glucosyl-cysteamine / glucosyl-penicillamine): 250 mM HEPES pH 7.25, room temperature
Method: The reaction mixture (0.5 ml in a 5 mm NMR tube) included 250 mM HEPES, pH 7.25, 10% D2O (for the purpose of locking the NMR magnetic field) and 50 mM concentration of a compound of interest such as cysteine. The reaction was performed at room temperature and it was initiated by adding an aliquot of G-E to produce a final concentration of 20 mM at which time consecutive NMR spectra of 20-minute duration were acquired using 580 scans, 60° pulses and an interpulse delay of 2.065 seconds.
NMR spectra were obtained on the VARIAN UNITY-300 and -500 MHz machines. Spectra were analyzed using information from model compounds and chemical shift data known in the art (Neglia, et al. (1985) J. Biol. Chem. 260:5406-10; Mossine, et al. (1994) Carbohyd. Res. 262:257-70).
Studies of reactions involving Schiff bases are intrinsically difficult as these compounds are labile at physiological pH. As such, to unambiguously follow Shiff base reactions in real-time, ^13C NMR spectroscopy was employed. To utilize this technique efficiently, glucose-ethylamine (G-E) was synthesized and labeled with ^13C at the C-1 position of the glucose moiety and with ^15N at the amino group of the ethylamine as a model compound of glucosyl-lysine.
Due to the spin-spin coupling between the nuclei of neighboring ^15N and ^13C atoms, the ^13C-labeled C-1 peak of glucose appeared in the ^13C NMR spectrum as a doublet resonating at 90.00 ppm. The unique signature doublet in the ^13C NMR spectrum of G-E, its chemical shift as well as the distinct ^13C chemical shifts of the other glucose-nucleophile adducts allowed for real-time observation reactions between G-E and various nucleophiles since cleavage of the ethylamine-glucose bond results in loss of the G-E doublet and the concomitant formation of new peaks corresponding to the new glucose-nucleophile adducts, e.g., the endproducts of transglycation of G-E, with glycine, taurine, spermidine and N-acetylcysteine. Because all of these transglycation products are labile at physiological pHs, the reactions were carried at a slightly alkaline pH of 8.5 to stabilize the reactants and products sufficiently so they could be followed by NMR over a span of several hours.

N[C@@H](CS)C(=O)NCC(=O)O [cys-gly]
potency as transglycating agent (kinetics of decomposition of G-E and formation of thiazolidines): reasonably good transglycating agents

NCCS [cysteamine]
conversion of G-E to thiazolidine (glucosyl-cysteamine / glucosyl-penicillamine): 80% | potency as transglycating agent (kinetics of decomposition of G-E and formation of thiazolidines): much more potent

N[C@@H](CS)C(=O)O [cysteine]
potency as transglycating agent (kinetics of decomposition of G-E and formation of thiazolidines): reasonably good transglycating agents

CC(C)(S)[C@@H](N)C(=O)O [penicillamine]
conversion of G-E to thiazolidine (glucosyl-cysteamine / glucosyl-penicillamine): 70% | potency as transglycating agent (kinetics of decomposition of G-E and formation of thiazolidines): much more potent
